Tests used:
Experiment in all cases: KINOMEscan competition binding
[1] = target: RPS6KA5 KD2 (human) (UniProt O75582); conditions: compound 10.0 µM
[2] = target: FES (human) (UniProt P07332); conditions: for kinase still bound, per cent of control: compound 10.0 µM
[3] = target: BMPR1A (human) (UniProt P36894); conditions: compound 10.0 µM
[4] = test system: KIT (human), P10721 [V559D/T670I]; conditions: compound 10.0 µM
[5] = target: ULK2 (human) (UniProt Q8IYT8); conditions: compound 10.0 µM
[6] = target: CHEK1 (human) (UniProt O14757); conditions: compound 10.0 µM
[7] = target: PIK3CB (human) (UniProt P42338); conditions: compound 10.0 µM
[8] = target: ERBB4 (human) (UniProt Q15303); conditions: compound 10.0 µM
[9] = target: DCLK3 (human) (UniProt Q9C098); conditions: compound 10.0 µM
[10] = target: JAK1 JH1 catalytic (human) (UniProt P23458); conditions: compound 10.0 µM
[11] = target: DDR1 (human) (UniProt Q08345); conditions: compound 10.0 µM
[12] = target: RIPK1 (human) (UniProt Q13546); conditions: compound 10.0 µM
[13] = target: CAMKK1 (human) (UniProt Q8N5S9); conditions: compound 10.0 µM
[14] = target: TIE1 (human) (UniProt P35590); conditions: compound 10.0 µM
[15] = target: PHKG2 (human) (UniProt P15735); conditions: compound 10.0 µM
[16] = target: MYO3B (human) (UniProt Q8WXR4); conditions: compound 10.0 µM
[17] = test system: FLT3 (human), P36888 [N841I]; conditions: compound 10.0 µM
[18] = target: MAP3K4 (human) (UniProt Q9Y6R4); conditions: compound 10.0 µM
[19] = target: CDK14 (human) (UniProt O94921); conditions: compound 10.0 µM
[20] = target: CLK2 (human) (UniProt P49760); conditions: compound 10.0 µM
[21] = target: FLT3 (human) (UniProt P36888); conditions: compound 10.0 µM
[22] = target: STK3 (human) (UniProt Q13188); conditions: compound 10.0 µM
[23] = target: CAMK2B (human) (UniProt Q13554); conditions: compound 10.0 µM
[24] = target: RIOK3 (human) (UniProt O14730); conditions: compound 10.0 µM
[25] = target: MLTK (human) (UniProt Q9NYL2); conditions: compound 10.0 µM
[26] = target: SYK (human) (UniProt P43405); conditions: compound 10.0 µM
[27] = target: CSNK2A1 (human) (UniProt P68400); conditions: compound 10.0 µM
[28] = test system: ABL1 (human), P00519 [Y253F]; conditions: compound 10.0 µM
[29] = target: ITK (human) (UniProt Q08881); conditions: compound 10.0 µM
[30] = target: IKBKB (human) (UniProt O14920); conditions: compound 10.0 µM
[31] = target: CLK1 (human) (UniProt P49759); conditions: compound 10.0 µM
[32] = target: CDK11B (human) (UniProt P21127); conditions: compound 10.0 µM
[33] = target: CSNK2A2 (human) (UniProt P19784); conditions: compound 10.0 µM
[34] = target: TYRO3 (human) (UniProt Q06418); conditions: compound 10.0 µM
[35] = target: TLK1 (human) (UniProt Q9UKI8); conditions: compound 10.0 µM
[36] = target: ANKK1 (human) (UniProt Q8NFD2); conditions: compound 10.0 µM
[37] = target: CDK7 (human) (UniProt P50613); conditions: compound 10.0 µM
[38] = target: FYN (human) (UniProt P06241); conditions: compound 10.0 µM
[39] = target: LYN (human) (UniProt P07948); conditions: compound 10.0 µM
[40] = target: LATS2 (human) (UniProt Q9NRM7); conditions: compound 10.0 µM
[41] = target: STK10 (human) (UniProt O94804); conditions: compound 10.0 µM
[42] = test system: EGFR (human), P00533 [A750P; 747-749 del]; conditions: compound 10.0 µM

FES (human), sequence (P07332 whole entry, looked up): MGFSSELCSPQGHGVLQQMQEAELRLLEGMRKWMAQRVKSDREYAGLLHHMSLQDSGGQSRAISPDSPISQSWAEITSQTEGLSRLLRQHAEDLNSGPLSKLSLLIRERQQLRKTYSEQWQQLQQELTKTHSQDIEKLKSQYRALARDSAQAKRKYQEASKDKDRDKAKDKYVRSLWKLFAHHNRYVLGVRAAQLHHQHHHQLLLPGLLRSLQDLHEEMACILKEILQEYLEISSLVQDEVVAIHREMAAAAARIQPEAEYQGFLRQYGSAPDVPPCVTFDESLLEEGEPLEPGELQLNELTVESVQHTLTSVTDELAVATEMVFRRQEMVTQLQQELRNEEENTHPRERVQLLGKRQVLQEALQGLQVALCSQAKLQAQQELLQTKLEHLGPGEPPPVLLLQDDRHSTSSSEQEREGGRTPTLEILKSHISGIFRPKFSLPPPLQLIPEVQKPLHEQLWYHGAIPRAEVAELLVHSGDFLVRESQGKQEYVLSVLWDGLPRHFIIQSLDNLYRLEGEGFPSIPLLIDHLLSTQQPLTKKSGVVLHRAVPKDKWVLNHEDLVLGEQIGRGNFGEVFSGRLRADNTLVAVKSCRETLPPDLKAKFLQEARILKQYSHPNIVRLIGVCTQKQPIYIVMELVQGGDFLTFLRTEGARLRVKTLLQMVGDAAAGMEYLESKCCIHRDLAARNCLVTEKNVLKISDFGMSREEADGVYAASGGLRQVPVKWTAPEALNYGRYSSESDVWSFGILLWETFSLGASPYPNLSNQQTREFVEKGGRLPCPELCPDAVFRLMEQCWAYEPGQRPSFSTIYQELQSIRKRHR
RIPK1 (human), sequence (Q13546 whole entry, looked up): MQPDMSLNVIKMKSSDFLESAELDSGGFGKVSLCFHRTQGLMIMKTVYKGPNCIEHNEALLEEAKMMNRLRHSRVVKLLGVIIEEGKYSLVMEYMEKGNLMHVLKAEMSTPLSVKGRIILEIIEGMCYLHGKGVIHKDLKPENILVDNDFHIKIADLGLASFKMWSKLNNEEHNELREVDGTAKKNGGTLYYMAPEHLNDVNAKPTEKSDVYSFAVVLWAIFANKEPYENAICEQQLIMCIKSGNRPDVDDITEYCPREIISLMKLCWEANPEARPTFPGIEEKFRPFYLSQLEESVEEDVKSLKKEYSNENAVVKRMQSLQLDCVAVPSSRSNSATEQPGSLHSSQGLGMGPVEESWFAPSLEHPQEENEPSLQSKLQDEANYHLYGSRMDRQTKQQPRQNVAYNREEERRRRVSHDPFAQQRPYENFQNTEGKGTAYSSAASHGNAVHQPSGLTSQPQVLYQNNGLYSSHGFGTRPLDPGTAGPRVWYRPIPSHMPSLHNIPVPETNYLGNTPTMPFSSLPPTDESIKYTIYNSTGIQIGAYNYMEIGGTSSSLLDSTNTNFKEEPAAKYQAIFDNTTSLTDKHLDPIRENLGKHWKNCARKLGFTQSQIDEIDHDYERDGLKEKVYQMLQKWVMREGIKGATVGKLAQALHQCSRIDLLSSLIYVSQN
DDR1 (human), sequence (Q08345 whole entry, looked up): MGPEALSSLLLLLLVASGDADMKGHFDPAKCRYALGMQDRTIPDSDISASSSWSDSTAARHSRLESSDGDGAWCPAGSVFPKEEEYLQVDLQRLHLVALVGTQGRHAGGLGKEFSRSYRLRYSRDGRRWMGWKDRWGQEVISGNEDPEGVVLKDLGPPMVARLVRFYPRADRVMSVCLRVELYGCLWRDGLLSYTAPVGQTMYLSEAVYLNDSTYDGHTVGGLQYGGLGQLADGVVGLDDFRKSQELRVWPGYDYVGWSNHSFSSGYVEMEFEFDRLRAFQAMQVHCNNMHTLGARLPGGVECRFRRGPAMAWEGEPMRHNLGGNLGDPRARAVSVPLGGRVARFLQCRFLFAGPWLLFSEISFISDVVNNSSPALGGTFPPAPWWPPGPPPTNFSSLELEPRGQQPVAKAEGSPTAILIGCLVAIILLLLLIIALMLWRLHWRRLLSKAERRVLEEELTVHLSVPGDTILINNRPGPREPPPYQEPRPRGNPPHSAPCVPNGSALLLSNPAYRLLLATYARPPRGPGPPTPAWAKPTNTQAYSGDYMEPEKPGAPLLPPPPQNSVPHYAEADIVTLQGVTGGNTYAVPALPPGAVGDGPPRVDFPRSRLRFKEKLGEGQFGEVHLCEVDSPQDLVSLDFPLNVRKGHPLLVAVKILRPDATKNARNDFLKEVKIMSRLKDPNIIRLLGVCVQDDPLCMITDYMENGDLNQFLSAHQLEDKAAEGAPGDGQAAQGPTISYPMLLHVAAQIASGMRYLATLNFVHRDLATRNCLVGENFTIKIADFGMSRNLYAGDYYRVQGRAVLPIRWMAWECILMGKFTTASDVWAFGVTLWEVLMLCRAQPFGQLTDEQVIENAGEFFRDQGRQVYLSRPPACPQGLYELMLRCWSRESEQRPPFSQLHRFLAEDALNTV
CAMKK1 (human), sequence (Q8N5S9 whole entry, looked up): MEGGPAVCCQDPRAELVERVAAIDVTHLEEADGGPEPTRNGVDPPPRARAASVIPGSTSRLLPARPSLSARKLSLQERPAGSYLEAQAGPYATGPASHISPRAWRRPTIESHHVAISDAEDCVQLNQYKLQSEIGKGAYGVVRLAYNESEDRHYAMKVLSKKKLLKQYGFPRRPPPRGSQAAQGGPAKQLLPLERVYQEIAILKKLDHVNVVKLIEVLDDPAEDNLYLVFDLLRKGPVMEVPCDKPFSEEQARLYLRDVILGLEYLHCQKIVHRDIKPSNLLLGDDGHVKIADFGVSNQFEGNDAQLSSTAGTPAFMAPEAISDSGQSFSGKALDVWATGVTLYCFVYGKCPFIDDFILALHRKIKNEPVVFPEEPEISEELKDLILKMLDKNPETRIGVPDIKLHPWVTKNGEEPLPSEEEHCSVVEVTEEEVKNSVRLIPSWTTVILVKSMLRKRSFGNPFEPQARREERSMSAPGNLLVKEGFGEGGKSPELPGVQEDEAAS
STK10 (human), sequence (O94804 whole entry, looked up): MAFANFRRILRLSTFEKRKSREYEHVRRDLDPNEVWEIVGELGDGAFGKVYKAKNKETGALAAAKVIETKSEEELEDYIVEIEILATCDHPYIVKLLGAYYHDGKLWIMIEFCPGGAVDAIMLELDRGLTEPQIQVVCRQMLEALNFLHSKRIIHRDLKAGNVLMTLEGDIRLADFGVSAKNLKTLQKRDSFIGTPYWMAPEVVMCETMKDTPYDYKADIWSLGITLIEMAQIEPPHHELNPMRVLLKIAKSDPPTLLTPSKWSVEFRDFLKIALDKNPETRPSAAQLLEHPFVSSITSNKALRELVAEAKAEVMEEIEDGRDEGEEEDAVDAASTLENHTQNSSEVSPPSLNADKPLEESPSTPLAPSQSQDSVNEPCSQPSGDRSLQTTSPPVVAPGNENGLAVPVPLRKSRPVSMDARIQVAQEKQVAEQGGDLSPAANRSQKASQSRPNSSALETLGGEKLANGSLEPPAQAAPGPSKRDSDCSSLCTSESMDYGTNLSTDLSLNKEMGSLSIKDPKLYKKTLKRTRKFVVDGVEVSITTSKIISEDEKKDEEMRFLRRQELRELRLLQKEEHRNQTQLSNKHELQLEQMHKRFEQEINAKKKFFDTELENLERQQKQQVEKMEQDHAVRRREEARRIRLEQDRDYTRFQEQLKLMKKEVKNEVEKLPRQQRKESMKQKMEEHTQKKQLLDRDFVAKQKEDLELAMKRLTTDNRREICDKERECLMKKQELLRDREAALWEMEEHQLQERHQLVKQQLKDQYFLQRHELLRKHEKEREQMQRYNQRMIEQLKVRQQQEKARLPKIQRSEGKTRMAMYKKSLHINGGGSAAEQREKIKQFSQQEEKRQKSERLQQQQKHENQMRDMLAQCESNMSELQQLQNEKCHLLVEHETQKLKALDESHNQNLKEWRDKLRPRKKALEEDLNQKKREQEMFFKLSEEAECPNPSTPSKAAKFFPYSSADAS
MLTK (human), sequence (Q9NYL2 whole entry, looked up): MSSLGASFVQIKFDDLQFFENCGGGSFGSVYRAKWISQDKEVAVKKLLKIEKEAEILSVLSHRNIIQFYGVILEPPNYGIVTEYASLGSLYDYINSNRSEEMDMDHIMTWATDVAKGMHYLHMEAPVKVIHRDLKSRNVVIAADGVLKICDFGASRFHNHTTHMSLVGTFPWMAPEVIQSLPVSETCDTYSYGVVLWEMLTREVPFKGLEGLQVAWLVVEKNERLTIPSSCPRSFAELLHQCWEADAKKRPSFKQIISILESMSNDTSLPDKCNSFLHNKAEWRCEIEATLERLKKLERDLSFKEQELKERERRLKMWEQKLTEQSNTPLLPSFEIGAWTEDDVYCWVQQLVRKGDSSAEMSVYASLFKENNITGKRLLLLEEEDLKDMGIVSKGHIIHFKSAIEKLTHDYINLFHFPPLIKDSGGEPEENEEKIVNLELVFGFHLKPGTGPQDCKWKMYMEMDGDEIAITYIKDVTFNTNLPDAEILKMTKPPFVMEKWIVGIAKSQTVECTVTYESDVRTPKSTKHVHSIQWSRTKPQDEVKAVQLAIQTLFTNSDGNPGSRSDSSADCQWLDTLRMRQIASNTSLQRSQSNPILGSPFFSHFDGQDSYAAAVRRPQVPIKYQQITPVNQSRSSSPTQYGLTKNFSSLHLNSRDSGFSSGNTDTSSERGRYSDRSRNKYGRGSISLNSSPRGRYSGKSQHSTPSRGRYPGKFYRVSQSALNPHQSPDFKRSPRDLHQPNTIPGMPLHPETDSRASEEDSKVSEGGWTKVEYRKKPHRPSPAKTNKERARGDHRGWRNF
CDK7 (human), sequence (P50613 whole entry, looked up): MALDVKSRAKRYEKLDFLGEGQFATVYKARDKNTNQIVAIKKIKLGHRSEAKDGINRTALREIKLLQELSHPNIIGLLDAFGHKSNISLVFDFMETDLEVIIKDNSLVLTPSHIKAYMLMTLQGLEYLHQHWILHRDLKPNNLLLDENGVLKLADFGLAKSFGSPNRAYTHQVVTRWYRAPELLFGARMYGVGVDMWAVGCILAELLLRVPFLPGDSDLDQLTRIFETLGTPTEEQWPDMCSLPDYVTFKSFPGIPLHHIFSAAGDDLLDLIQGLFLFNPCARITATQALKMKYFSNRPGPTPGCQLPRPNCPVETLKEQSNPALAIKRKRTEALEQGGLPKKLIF

`CCN1CCN(Cc2ccc(NC(=O)c3ccc(C)c(/C=C/c4cnc(Nc5cc(N6CCNCC6)nc(C)n5)cn4)c3)cc2C(F)(F)F)CC1` gave a kinase still bound, per cent of control [1] of 73%, a kinase still bound, per cent of control [2] of 9.4% and a kinase still bound, per cent of control [3] of 100%. The kinase still bound, per cent of control [4] was 14%, the kinase still bound, per cent of control [5] was 32% and the kinase still bound, per cent of control [6] was 82%. It also gave a kinase still bound, per cent of control [7] of 85%, a kinase still bound, per cent of control [8] of 7% and a kinase still bound, per cent of control [9] of 87%. It also gave a kinase still bound, per cent of control [10] of 80%, a kinase still bound, per cent of control [11] of 0% and a kinase still bound, per cent of control [12] of 2.7%. It also gave a kinase still bound, per cent of control [13] of 98%, a kinase still bound, per cent of control [14] of 2.8% and a kinase still bound, per cent of control [15] of 100%. For the same compound, the kinase still bound, per cent of control [16] was 67%, the kinase still bound, per cent of control [17] was 0% and the kinase still bound, per cent of control [18] was 2.5%. For the same compound, the kinase still bound, per cent of control [19] was 88%, the kinase still bound, per cent of control [20] was 86% and the kinase still bound, per cent of control [21] was 3.8%. It also gave a kinase still bound, per cent of control [22] of 100%, a kinase still bound, per cent of control [23] of 92% and a kinase still bound, per cent of control [24] of 78%. For the same compound, the kinase still bound, per cent of control [25] was 1.2%, the kinase still bound, per cent of control [26] was 15% and the kinase still bound, per cent of control [27] was 89%. The kinase still bound, per cent of control [28] was 0.1%, the kinase still bound, per cent of control [29] was 86% and the kinase still bound, per cent of control [30] was 0.95%. The kinase still bound, per cent of control [31] was 29%, the kinase still bound, per cent of control [32] was 78% and the kinase still bound, per cent of control [33] was 72%. The kinase still bound, per cent of control [34] was 37%, the kinase still bound, per cent of control [35] was 100% and the kinase still bound, per cent of control [36] was 9.6%. The kinase still bound, per cent of control [37] was 3%, the kinase still bound, per cent of control [38] was 4.6% and the kinase still bound, per cent of control [39] was 1%. For the same compound, the kinase still bound, per cent of control [40] was 36%, the kinase still bound, per cent of control [41] was 0% and the kinase still bound, per cent of control [42] was 2.9%.

Work on `CCOc1cc(N2CCC(N3CCCCC3)CC2)ccc1Nc1nc(Nc2ccccc2S(=O)(=O)C(C)C)c2cn[nH]c2n1` yielded a kinase still bound, per cent of control [1] of 100%, an IC50 [2] of 58 µM and a kinase still bound, per cent of control [2] of 3.6%. The kinase still bound, per cent of control [3] was 100%, the kinase still bound, per cent of control [4] was 100% and the kinase still bound, per cent of control [5] was 3.4%. The kinase still bound, per cent of control [6] was 100%, the kinase still bound, per cent of control [7] was 17% and the kinase still bound, per cent of control [8] was 7.8%. The kinase still bound, per cent of control [9] was 100%, the kinase still bound, per cent of control [10] was 100% and the kinase still bound, per cent of control [11] was 100%. It also gave a kinase still bound, per cent of control [12] of 100%, a kinase still bound, per cent of control [13] of 46% and a kinase still bound, per cent of control [14] of 76%. It also gave a kinase still bound, per cent of control [15] of 21%, a kinase still bound, per cent of control [16] of 18% and a kinase still bound, per cent of control [17] of 100%. It also gave a kinase still bound, per cent of control [18] of 100%, a kinase still bound, per cent of control [19] of 100% and a kinase still bound, per cent of control [20] of 2.2%. The kinase still bound, per cent of control [21] was 100%, the kinase still bound, per cent of control [22] was 100% and the kinase still bound, per cent of control [23] was 65%. The kinase still bound, per cent of control [24] was 88%, the kinase still bound, per cent of control [25] was 100% and the kinase still bound, per cent of control [26] was 100%. For the same compound, the kinase still bound, per cent of control [27] was 100%, the kinase still bound, per cent of control [28] was 61% and the kinase still bound, per cent of control [29] was 40%. The kinase still bound, per cent of control [30] was 100%, the kinase still bound, per cent of control [31] was 0.4% and the kinase still bound, per cent of control [32] was 100%. The kinase still bound, per cent of control [33] was 94%, the kinase still bound, per cent of control [34] was 100% and the kinase still bound, per cent of control [35] was 75%. It also gave a kinase still bound, per cent of control [36] of 100%, a kinase still bound, per cent of control [37] of 42% and a kinase still bound, per cent of control [38] of 100%. For the same compound, the kinase still bound, per cent of control [39] was 100%, the kinase still bound, per cent of control [40] was 88% and the kinase still bound, per cent of control [41] was 100%. The kinase still bound, per cent of control [42] was 10%.
